In one test the target is T1, ABCC6 WT (Homo sapiens, UniProt O95255).
T1 construct: expressed in transfected cells; host or cells: HEK-293 (transient, Lipofectamine 2000)
Put plainly: ABCC6 WT assay: HiBit protein expression. It counts as cell-based. Particulars: HEK-293 cells transiently expressing HiBit-tagged ABCC6 WT; 24 h treatment; top concentration 20 μM; read-out: ABCC6 WT EC50, Emax. The method in brief: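 HEK-293 cells transiently transfected with HiBit-tagged human ABCC6 WT cDNA, seeded 24 h post-transfection, treated 24 h at 37° C with ten 2-fold doses (top 20 μM final, 0.15% DMSO). HiBit lytic luminescence reports protein expression; Emax and EC50 derived.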

Another test has as its target T2, ABCA4 P1380L (Homo sapiens, UniProt P78363, P1380L).
T2 construct: expressed in transfected cells
Put plainly: A4 correction dose-response assay: ABCA4 P1380L HiBit protein expression. The test is classed as cell-based. The settings on record: HEK-293 cells stably expressing HiBit-tagged ABCA4 P1380L; 24 h treatment; top concentration 30 μM; read-out: ABCA4 P1380L EC50, Emax. In outline: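 Cells transfected with HiBit-tagged human ABCA4 P1380L cDNA were treated for 24 h at 37°C with an eleven-point dilution series (top final 30 μM, 0.3% DMSO).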

Structures are written as SMILES.

T2 sequence (P78363 whole entry P1380L): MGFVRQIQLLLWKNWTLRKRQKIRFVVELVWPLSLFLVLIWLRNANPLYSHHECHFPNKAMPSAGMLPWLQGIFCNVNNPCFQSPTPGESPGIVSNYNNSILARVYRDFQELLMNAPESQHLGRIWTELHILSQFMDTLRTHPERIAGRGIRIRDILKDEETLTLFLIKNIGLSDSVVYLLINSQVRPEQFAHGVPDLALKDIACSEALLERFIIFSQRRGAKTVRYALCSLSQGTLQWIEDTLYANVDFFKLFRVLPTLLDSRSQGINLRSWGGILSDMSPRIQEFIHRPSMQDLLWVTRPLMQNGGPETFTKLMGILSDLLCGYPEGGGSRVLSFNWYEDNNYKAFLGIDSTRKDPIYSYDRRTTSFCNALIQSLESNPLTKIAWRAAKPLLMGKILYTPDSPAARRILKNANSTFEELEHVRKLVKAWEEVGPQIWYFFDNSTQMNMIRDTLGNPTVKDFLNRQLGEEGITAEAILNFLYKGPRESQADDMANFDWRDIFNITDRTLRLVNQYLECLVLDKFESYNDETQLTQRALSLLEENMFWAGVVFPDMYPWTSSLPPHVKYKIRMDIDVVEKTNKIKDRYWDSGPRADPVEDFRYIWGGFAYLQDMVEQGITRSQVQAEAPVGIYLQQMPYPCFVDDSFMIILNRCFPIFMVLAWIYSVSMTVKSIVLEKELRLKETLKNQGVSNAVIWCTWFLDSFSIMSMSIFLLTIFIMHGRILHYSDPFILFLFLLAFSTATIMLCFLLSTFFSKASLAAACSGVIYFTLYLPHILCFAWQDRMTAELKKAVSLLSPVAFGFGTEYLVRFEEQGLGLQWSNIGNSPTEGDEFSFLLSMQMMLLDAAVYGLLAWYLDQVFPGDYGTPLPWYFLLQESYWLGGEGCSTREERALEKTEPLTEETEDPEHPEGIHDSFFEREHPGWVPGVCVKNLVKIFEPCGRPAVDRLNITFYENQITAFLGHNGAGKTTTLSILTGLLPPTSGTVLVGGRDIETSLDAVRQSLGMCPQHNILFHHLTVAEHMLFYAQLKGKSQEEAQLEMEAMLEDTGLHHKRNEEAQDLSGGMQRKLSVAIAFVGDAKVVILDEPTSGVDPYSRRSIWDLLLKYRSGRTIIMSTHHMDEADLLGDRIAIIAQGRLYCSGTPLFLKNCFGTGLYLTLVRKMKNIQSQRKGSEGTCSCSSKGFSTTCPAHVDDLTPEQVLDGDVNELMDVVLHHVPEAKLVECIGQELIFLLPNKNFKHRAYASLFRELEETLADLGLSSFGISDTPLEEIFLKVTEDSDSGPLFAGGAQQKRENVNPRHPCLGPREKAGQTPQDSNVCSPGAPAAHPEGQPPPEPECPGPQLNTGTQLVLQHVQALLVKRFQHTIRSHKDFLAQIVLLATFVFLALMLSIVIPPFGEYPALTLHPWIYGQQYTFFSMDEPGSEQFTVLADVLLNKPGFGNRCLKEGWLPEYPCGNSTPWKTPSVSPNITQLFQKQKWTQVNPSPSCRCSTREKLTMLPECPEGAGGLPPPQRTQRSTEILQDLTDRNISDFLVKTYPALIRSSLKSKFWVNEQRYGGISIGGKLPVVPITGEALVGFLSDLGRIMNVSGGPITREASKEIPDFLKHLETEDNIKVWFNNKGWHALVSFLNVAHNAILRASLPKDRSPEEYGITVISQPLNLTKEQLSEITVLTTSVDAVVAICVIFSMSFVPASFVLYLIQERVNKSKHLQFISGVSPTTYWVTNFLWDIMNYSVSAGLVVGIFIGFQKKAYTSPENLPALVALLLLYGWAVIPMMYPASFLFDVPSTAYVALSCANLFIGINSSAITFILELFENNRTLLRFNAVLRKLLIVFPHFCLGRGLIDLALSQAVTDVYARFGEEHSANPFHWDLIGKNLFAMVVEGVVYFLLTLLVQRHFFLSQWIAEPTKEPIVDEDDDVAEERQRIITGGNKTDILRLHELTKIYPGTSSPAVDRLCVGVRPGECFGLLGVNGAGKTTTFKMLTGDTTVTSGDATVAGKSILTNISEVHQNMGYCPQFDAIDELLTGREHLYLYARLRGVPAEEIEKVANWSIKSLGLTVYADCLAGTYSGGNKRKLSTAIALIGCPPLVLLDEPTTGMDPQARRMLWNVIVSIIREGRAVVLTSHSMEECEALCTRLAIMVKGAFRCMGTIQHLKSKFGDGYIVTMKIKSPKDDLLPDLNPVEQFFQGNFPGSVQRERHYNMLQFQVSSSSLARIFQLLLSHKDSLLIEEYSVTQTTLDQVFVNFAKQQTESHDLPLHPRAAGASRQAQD
T1 sequence (O95255 whole entry): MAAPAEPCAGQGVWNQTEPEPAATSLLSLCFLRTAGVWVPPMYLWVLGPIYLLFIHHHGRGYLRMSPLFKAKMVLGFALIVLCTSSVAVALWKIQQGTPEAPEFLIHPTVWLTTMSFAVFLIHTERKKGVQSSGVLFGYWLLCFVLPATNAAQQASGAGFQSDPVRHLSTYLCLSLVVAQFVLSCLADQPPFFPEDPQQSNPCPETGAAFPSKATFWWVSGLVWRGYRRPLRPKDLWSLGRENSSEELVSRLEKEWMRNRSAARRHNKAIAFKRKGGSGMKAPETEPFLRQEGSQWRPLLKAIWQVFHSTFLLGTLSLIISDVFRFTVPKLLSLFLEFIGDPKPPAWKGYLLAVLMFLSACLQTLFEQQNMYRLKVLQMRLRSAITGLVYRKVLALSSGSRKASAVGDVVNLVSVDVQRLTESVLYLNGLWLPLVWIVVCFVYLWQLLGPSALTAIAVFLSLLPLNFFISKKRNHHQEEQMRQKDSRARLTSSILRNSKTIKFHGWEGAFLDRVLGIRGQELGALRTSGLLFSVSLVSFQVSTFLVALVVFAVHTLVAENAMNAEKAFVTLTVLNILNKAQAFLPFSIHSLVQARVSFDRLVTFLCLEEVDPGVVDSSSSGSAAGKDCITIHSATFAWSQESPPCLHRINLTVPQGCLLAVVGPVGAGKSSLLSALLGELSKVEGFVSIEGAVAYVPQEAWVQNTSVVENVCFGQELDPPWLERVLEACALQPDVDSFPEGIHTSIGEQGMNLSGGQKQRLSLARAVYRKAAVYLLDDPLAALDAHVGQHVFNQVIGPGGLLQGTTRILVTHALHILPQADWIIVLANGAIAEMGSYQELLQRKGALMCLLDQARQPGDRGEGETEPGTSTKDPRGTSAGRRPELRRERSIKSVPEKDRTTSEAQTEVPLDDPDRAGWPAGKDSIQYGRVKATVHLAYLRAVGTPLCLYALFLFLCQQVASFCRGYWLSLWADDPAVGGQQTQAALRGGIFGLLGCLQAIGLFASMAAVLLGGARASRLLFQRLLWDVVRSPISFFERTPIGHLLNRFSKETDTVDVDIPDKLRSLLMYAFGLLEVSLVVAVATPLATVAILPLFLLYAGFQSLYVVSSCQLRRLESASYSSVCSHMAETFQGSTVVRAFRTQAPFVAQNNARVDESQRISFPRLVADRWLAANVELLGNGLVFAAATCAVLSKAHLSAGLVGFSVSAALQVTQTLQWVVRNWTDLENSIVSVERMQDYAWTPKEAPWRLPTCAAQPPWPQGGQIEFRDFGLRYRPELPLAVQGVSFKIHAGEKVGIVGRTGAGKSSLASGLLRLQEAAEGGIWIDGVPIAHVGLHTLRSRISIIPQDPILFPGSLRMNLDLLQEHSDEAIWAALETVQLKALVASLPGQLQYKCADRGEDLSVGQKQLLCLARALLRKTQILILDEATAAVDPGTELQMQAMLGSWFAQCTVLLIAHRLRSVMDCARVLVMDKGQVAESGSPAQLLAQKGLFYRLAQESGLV

Turning to `Cc1cc(C)c(Oc2nc(-c3cncc(Cl)c3)ccc2S(=O)(=O)NC(c2ccccn2)C(F)(F)F)c(C)c1` (single isomer, unassigned) [Compound I-79], the results for the EC50 at ABCC6 WT and at ABCA4 P1380L were 1 to 10 µM and below 25 µM, respectively.

As to `Cc1cc(C)c(Oc2nc(-c3cncc(Cl)c3)ccc2S(=O)(=O)NC(c2ccccn2)C(F)(F)F)c(C)c1` (single isomer, unassigned) [Compound I-80], the EC50 on ABCC6 WT is at least 25 µM; on ABCA4 P1380L, above 25 µM.

On to `Cc1cc(C)c(Oc2nc(-c3cncc(C(N)=O)c3)ccc2NS(C)(=O)=O)c(C2CC2)n1` [Compound I-1], for which the EC50 at ABCC6 WT and at ABCA4 P1380L was below 1 µM each time.

For `Cc1cc(C)c(Oc2nc(-c3cn[nH]c3)ccc2NS(C)(=O)=O)c(C2CC2)c1` [Compound I-2], the results for the EC50 on ABCC6 WT and on ABCA4 P1380L were 10 to 25 µM and above 25 µM, respectively.

Regarding `Cc1ccc(Oc2nc(-c3cncc(C#N)c3)ccc2NS(C)(=O)=O)c(C)n1` [Compound I-3], the EC50 at ABCC6 WT and on ABCA4 P1380L was below 1 µM each time.

Consider `Cc1cc(C)c(Oc2nc(-c3cncc(Cl)c3)ccc2N(C2CC2)S(C)(=O)=O)c(C)c1` [Compound I-42], for which the EC50 on ABCC6 WT and on ABCA4 P1380L was 1 to 10 µM each time.

Consider `Cc1cc(C)c(Oc2nc(N3CC4(C3)CN(S(=O)(=O)C3CC3)C4)ccc2NS(C)(=O)=O)c(C)c1` [Compound I-43], for which the EC50 is at least 25 µM on ABCC6 WT and above 25 µM on ABCA4 P1380L.

`Cc1cc(C)c(Oc2nc(N3CCN(S(=O)(=O)C4CC4)CC3)ccc2NS(C)(=O)=O)c(C)c1` [Compound I-44]: the results for the EC50 at ABCC6 WT and on ABCA4 P1380L were 1 to 10 µM and 10 to 25 µM, respectively.

As to `Cc1cc(C)c(Oc2nc(-c3ccc(C#N)nc3)ccc2NS(C)(=O)=O)c(C)c1` [Compound I-45], the EC50 at ABCC6 WT and at ABCA4 P1380L was below 1 µM in each case.

`Cc1cc(C)c(Oc2nc(-c3cncc(Cl)c3)ccc2NS(C)(=O)=O)c(C)n1` [Compound I-46]: the EC50 at ABCC6 WT and at ABCA4 P1380L was below 1 µM in each case.

Regarding `Cc1cc(C)c(Oc2nc(N3CCN(C(=O)C4CC4)CC3)ccc2NS(C)(=O)=O)c(C)c1` [Compound I-47], the EC50 at ABCC6 WT is 1 to 10 µM; at ABCA4 P1380L, above 25 µM.

As to `Cc1cc(C)c(Oc2nc(-c3cncc(Cl)c3)ccc2N(C)S(C)(=O)=O)c(C)c1` [Compound I-48], the EC50 on ABCC6 WT is below 1 µM; at ABCA4 P1380L, above 25 µM.

On to `Cc1cc(C)c(Oc2nc(-c3cncc(Cl)c3)ccc2NS(=O)(=O)C2CC2)c(C)c1` [Compound I-49], for which the EC50 on ABCC6 WT was below 1 µM; at ABCA4 P1380L, above 25 µM.

Consider `CC(=O)NC1CN(c2ccc(NS(=O)(=O)c3cccnc3)c(Oc3c(C)cc(C)cc3C3CC3)n2)C1` [Compound I-50], for which the EC50 on ABCC6 WT was below 25 µM; at ABCA4 P1380L, above 25 µM.

As for `COC1CC(S(=O)(=O)Nc2ccc(-c3cncc(Cl)c3)nc2Oc2c(C)cc(C)cc2C)C1` (centres unmarked) [Compound I-51], the EC50 on ABCC6 WT and on ABCA4 P1380L was below 1 µM in each case.

For the compound `Cc1cc(C)c(Oc2nc(-c3cncc(Cl)c3)ccc2N(C)S(=O)(=O)c2cnn(C)c2)c(C2CC2)c1` [Compound I-52], the EC50 is below 1 µM at ABCC6 WT and 1 to 10 µM at ABCA4 P1380L.

Turning to `Cc1cc(C)c(Oc2nc(-c3cncc(Cl)c3)ccc2N(C)S(=O)(=O)c2cccnc2)c(C2CC2)c1` [Compound I-53], the EC50 on ABCC6 WT and on ABCA4 P1380L was 1 to 10 µM in each case.

For the compound `Cc1cc(C)c(Oc2nc(-c3cncc(Cl)c3)ccc2NS(=O)(=O)c2cccnc2)c(C2CC2)c1` [Compound I-54], the 50% effective concentration (EC50) on ABCC6 WT was below 1 µM; on ABCA4 P1380L, below 25 µM.

As for `Cc1cc(C)c(Oc2nc(-c3cncc(Cl)c3)ccc2NS(C)(=O)=O)c(C)c1` [Compound I-55], the EC50 at ABCC6 WT was below 1 µM; on ABCA4 P1380L, above 25 µM.

For `Cc1cc(C)c(Oc2cc(-c3cncc(Cl)c3)ncc2NS(C)(=O)=O)c(C)c1` [Compound I-56], the EC50 on ABCC6 WT is below 1 µM; on ABCA4 P1380L, above 25 µM.

As for `Cc1cc(C)c(Oc2nc(-c3cncc(Cl)c3)ccc2NS(C)(=O)=O)c(C2CC2)c1` [Compound I-57], the EC50 is below 1 µM at ABCC6 WT and 1 to 10 µM at ABCA4 P1380L.

On to `Cc1cc(C)c(Oc2nc(-c3cncc(Cl)c3)ccc2NS(=O)(=O)c2cnn(C)c2)c(C2CC2)c1` [Compound I-58], for which the values for the EC50 at ABCC6 WT and at ABCA4 P1380L were below 25 µM and above 25 µM, respectively.

Take `Cc1cc(C)c(Oc2cc(-c3cncc(Cl)c3)cnc2N(C)S(=O)(=O)c2cnn(C)c2)c(C)c1` [Compound I-59]: the EC50 was at least 25 µM on ABCC6 WT and 1 to 10 µM on ABCA4 P1380L.

Take `Cc1cc(C)c(Oc2cc(-c3cncc(Cl)c3)cnc2NS(C)(=O)=O)c(C)c1` [Compound I-60]: the EC50 on ABCC6 WT was 1 to 10 µM; on ABCA4 P1380L it was below 25 µM.

Consider `Cc1cc(C)c(Oc2cc(-c3cncc(Cl)c3)cnc2NS(=O)(=O)c2cnn(C)c2)c(C)c1` [Compound I-61], for which the results for the EC50 at ABCC6 WT and at ABCA4 P1380L were 1 to 10 µM and above 25 µM, respectively.

Take `Cc1cc(C)c(Oc2nc(-c3cncc(Cl)c3)ccc2NS(=O)(=O)Cc2ccccn2)c(C)c1` [Compound I-62]: the concentration for a half-maximal effect (EC50) on ABCC6 WT was at least 25 µM; at ABCA4 P1380L, above 25 µM.

On to `COc1ccc2nc[nH]c2c1S(=O)(=O)Nc1ccc(-c2cncc(Cl)c2)nc1Oc1c(C)cc(C)cc1C` [Compound I-63], for which the EC50 at ABCC6 WT is below 1 µM; on ABCA4 P1380L it was 10 to 25 µM.

Regarding `Cc1cc(C)c(Oc2nc(-c3cncc(Cl)c3)ccc2N(C)S(=O)(=O)Cc2ccccc2)c(C)c1` [Compound I-64], the EC50 at ABCC6 WT was below 25 µM; on ABCA4 P1380L, 1 to 10 µM.

Turning to `Cc1cc(C)c(Oc2nc(-c3cncc(Cl)c3)ccc2NS(=O)(=O)Cc2ccccc2)c(C)c1` [Compound I-65], the values for the EC50 at ABCC6 WT and on ABCA4 P1380L were at least 25 µM and above 25 µM, respectively.

As to `Cc1cc(C)c(Oc2nc(-c3cncc(Cl)c3)ccc2N2CCCCS2(=O)=O)c(C)c1` [Compound I-66], the EC50 was 1 to 10 µM on ABCC6 WT and above 25 µM on ABCA4 P1380L.

For the compound `Cc1cc(C)c(Oc2nc(-c3cncc(Cl)c3)ccc2N2CCCS2(=O)=O)c(C)c1` [Compound I-67], the concentration for a half-maximal effect (EC50) at ABCC6 WT is 1 to 10 µM; on ABCA4 P1380L, above 25 µM.

With `Cc1cc(C)c(Oc2nc(-c3cncc(Cl)c3)ccc2NS(=O)(=O)C(C)(C)C)c(C)c1` [Compound I-68], the results for the EC50 at ABCC6 WT and on ABCA4 P1380L were at least 25 µM and above 25 µM, respectively.

As for `Cc1cc(C)c(Oc2nc(-c3cncc(Cl)c3)ccc2N(C)S(=O)(=O)c2cccnc2)c(C)c1` [Compound I-69], the EC50 is below 1 µM on ABCC6 WT and 1 to 10 µM on ABCA4 P1380L.

On to `Cc1cc(C)c(Oc2nc(-c3cncc(Cl)c3)ccc2N(C)S(=O)(=O)c2cnn(C)c2)c(C)c1` [Compound I-70], for which the EC50 is below 1 µM on ABCC6 WT and above 25 µM on ABCA4 P1380L.

Regarding `Cc1cc(C)c(Oc2nc(-c3cncc(Cl)c3)ccc2NS(=O)(=O)c2cccnc2)c(C)c1` [Compound I-71], the EC50 is below 1 µM at ABCC6 WT and above 25 µM on ABCA4 P1380L.

For `Cc1cc(C)c(Oc2nc(-c3cncc(Cl)c3)ccc2NS(=O)(=O)c2cnn(C)c2)c(C)c1` [Compound I-72], the values for the EC50 on ABCC6 WT and at ABCA4 P1380L were 1 to 10 µM and above 25 µM, respectively.

As for `CNS(=O)(=O)c1ccc(N2CCN(C(=O)C3CC3)CC2)nc1Oc1c(C)cc(C)cc1C` [Compound I-73], the EC50 on ABCC6 WT is 1 to 10 µM; on ABCA4 P1380L it was below 1 µM.

`COC1CC(NS(=O)(=O)c2ccc(-c3cncc(Cl)c3)nc2Oc2c(C)cc(C)cc2C2CC2)C1` (centres unmarked) [Compound I-74]: the EC50 on ABCC6 WT and at ABCA4 P1380L was 1 to 10 µM in each case.

As for `Cc1cc(C)c(Oc2nc(-c3cncc(Cl)c3)ccc2S(=O)(=O)Nc2cnn(C)c2)c(C2CC2)c1` [Compound I-75], the EC50 on ABCC6 WT is below 25 µM; at ABCA4 P1380L, 1 to 10 µM.

On to `Cc1cc(C)c(Oc2nc(-c3cncc(Cl)c3)ccc2S(=O)(=O)NCc2ccccn2)c(C2CC2)c1` [Compound I-76], for which the results for the EC50 at ABCC6 WT and on ABCA4 P1380L were at least 25 µM and above 25 µM, respectively.

For `CNS(=O)(=O)c1ccc(-c2cncc(Cl)c2)nc1Oc1c(C)cc(C)cc1C1CC1` [Compound I-77], the EC50 at ABCC6 WT is below 1 µM; on ABCA4 P1380L it was below 25 µM.

`COC1CC(NS(=O)(=O)c2ccc(-c3cncc(Cl)c3)nc2Oc2c(C)cc(C)cc2C)C1` (centres unmarked) [Compound I-78]: the EC50 on ABCC6 WT is below 1 µM; on ABCA4 P1380L, 1 to 10 µM.

Take `Cc1cc(C)c(Oc2nc(-c3cncc(Cl)c3)ccc2S(=O)(=O)N[C@H](c2ccccc2)C(F)(F)F)c(C)c1` [Compound I-81]: the EC50 on ABCC6 WT and at ABCA4 P1380L was 1 to 10 µM throughout.

As for `Cc1cc(C)c(Oc2nc(-c3cncc(Cl)c3)ccc2S(=O)(=O)N[C@@H](c2ccccc2)C(F)(F)F)c(C)c1` [Compound I-83], the EC50 at ABCC6 WT and on ABCA4 P1380L was 1 to 10 µM in each case.

`CNS(=O)(=O)c1cnc(-c2cncc(Cl)c2)cc1Oc1c(C)cc(C)cc1C` [Compound I-84]: the EC50 at ABCC6 WT was at least 25 µM; on ABCA4 P1380L it was below 25 µM.

In the case of `Cc1cc(C)c(Oc2nc(-c3cncc(Cl)c3)ccc2S(=O)(=O)N(C)Cc2ccccc2)c(C)c1` [Compound I-85], the values for the EC50 at ABCC6 WT and at ABCA4 P1380L were at least 25 µM and above 25 µM, respectively.

On to `Cc1cc(C)c(Oc2nc(-c3cncc(Cl)c3)ccc2S(=O)(=O)NCc2ccccn2)c(C)c1` [Compound I-86], for which the values for the EC50 at ABCC6 WT and on ABCA4 P1380L were 1 to 10 µM and below 25 µM, respectively.

As to `Cc1cc(C)c(Oc2nc(-c3cncc(Cl)c3)ccc2S(=O)(=O)NCc2cc(C(F)(F)F)ccn2)c(C)c1` [Compound I-87], the figures for the EC50 on ABCC6 WT and on ABCA4 P1380L were 1 to 10 µM and above 25 µM, respectively.

For the compound `Cc1cc(C)c(Oc2nc(-c3cncc(Cl)c3)ccc2S(=O)(=O)NCc2ccccc2)c(C)c1` [Compound I-88], the EC50 on ABCC6 WT and at ABCA4 P1380L was 1 to 10 µM each time.

The values above are taken from patent US20250228835A1, “PYRIDINYLOXYPYRIDINES AND RELATED COMPOUNDS AND THEIR USE IN TREATING MEDICAL CONDITIONS” (Rectify Pharmaceuticals, Inc., priority 2024, published 2025).
